Test results as given in publication PMC10704561, “Multi-Photon-Sensitive Chromophore for the Photorelease of Biologically Active Phenols” (ACS Chemical Neuroscience, 2023).
Where two headings read alike, the source gives them in different places.

Experiments:
dLight 1.2 = assay: Activation of dLight 1.2 on HCT 116 cells by photoreleased dopamine; assay type: cell-based; settings: for dLight 1.2 response after photoactivation (1PE): 10 μM
Protocol: (§1) HCT 116 cells were grown in Dulbecco’s […] medium (DMEM) supplemented with 10% fetal bovine serum (FBS), 1% nonessential amino acids (NEAA), and maintained at 37 °C and 5% CO2. HEK 293 cells stably expressing TRPV1 channels were grown as previously described.[62]
(§2) An Olympus FluoView FV1000MPE confocal microscope was employed to image and record cells plated onto 35 mm glass-bottom 4-well plates. A 488 nm ion laser excited the dopamine and serotonin sensors dLight 1.2 and GRAB5-HT, respectively, and Fluo-4 calcium dye. FluoView 10-ASW version 4.0 (Olympus), ImageJ-Fiji, and DeltaGraph (Red Rock Software) were used for capturing, extracting, and processing the collected data. Photoactivation was conducted with 405 nm (100% laser power, 1PE) or 720 nm (10% laser power, 24 mW, 2PE) light for MeO-CyHQ-O-DA and MeO-CyHQ-O-5HT or 740 nm (20% laser power, 15 mW light) for MeO-CyHQ-O-VNA and MeO-CyHQ-O-EG. Images were captured by using a 60× immersion lens.
(§3) HCT 116 cells were grown to 70% confluency on specialized glass-bottom plates for imaging. After 24 h, the cells were transfected (70% efficiency) with either dLight 1.2 or GRAB5-HT. Before imaging, the DMEM was discarded and the cells were washed twice with HBSS. HBSS (500 μL) was added per well for imaging. DMSO was used to dissolve the compounds CyHQ-O-DA, MeO-CyHQ-O-DA, and MeO-CyHQ-O-5HT to make 1 mM stock solutions. These were then added to the wells to obtain the desired final concentrations, keeping the DMSO concentration to less than 1%, which is tolerated by the cells. Control experiments included optimization of the response of the dLight 1.2 and GRAB5-HT sensors to the release of dopamine and serotonin, respectively, through exposure to different concentrations of CyHQ-O-DA, MeO-CyHQ-O-DA, and MeO-CyHQ-O-5HT at different durations of 405 nm light. Optimizations were conducted in a similar manner for activation through 2PE. Light dose–response curves were generated by applying a 405 nm light pulse for 1, 10, 50, 100, 200, 300, 400, 500, 600, 750, and 1000 ms at 50 frame intervals for CyHQ-O-DA, MeO-CyHQ-O-DA, and MeO-CyHQ-O-5HT.

[1] = One-photon excitation (1PE) photolysis with 365 nm LED, HPLC quantification; assay type: physicochemical; settings: for t90% (time required to consume 90% of the starting material): 1PE 365 nm LED, lamp intensity differs per compound (Table S1)
Protocol: A 0.1 mM solution (3 mL) of each protected phenol in KMOPS buffer (10 or 20% CH3CN was used as a cosolvent for 3d and 6c) was placed in a 3 mL quartz cuvette along with a stirring bar. The solution was irradiated with stirring using a 365 nm LED lamp (Cairn OptoLED Lite). At different time intervals, 80 μL aliquots of the solution were taken out and analyzed by uHPLC (Agilent 1290 Infinity series), monitoring the AUC at 320 nm (Supporting Information, HPLC Data). An external standard calibration method of quantification was used for the calibration of the samples. The experiments were repeated in sets of three. A gradient elution with a flux rate of 0.3 mL/min using a mobile phase comprising A = 0.1% trifluoroacetic acid in water and B = acetonitrile (starting from 5% B to 100% over 10 min and re-equilibrating to 5% B before the next run) was used for the separations. A comparison of the AUC with the calibration curves of the substrates (obtained from known concentration) determined the percentages of the remaining starting materials. The percentages of the remaining starting materials were plotted versus time. The time to 90% of decomposition of the substrate (t90% values) was obtained by fitting a single exponential decay curve to the data using DeltaGraph (Red Rock Software). The following equation was used to calculate the quantum yield (Φu) of each photolysis reaction:[42],[47],[56],[57] Φu = (I σ t90%)^−1, where I is the irradiation intensity (determined by potassium ferrioxalate actinometry and measured in Einstein cm^–2 s^–1),[58] σ is the decadic extinction coefficient (1000 × ε) at 365 nm, and t90% is the time required to consume 90% of the starting material. See Supporting Information Table S1 for the I, σ, and t90% data.

[2] = UV-vis spectra and molar extinction coefficient in KMOPS buffer; assay type: physicochemical; settings: 0.1 mM in KMOPS buffer, pH 7.2 (3d, 6c: 10 or 20% CH3CN added)
Protocol: A 100 μM solution of each protected phenol was prepared in KMOPS buffer (20% CH3CN was used as a cosolvent for compounds 3d and 6c). The UV–vis spectra of these solutions were recorded at between 250 and 500 nm. All of the measurements were repeated in triplicate, and the absorbance values were averaged. The Beer–Lambert law, ε = A(cl)^−1, was used for the calculation of ε values at λ = 365 nm, where A is the absorbance value measured at 365 nm, c is the concentration of the sample, and l is the cuvette length (1 cm). See the Supporting Information for the spectra.

[3] = Spontaneous hydrolysis in the dark; assay type: physicochemical; settings: 0.1 mM in KMOPS pH 7.2, dark, 7 days
Protocol: A 0.1 mM solution of each compound was prepared in KMOPS buffer. For compounds 3d and 6c, 20% CH3CN was used as a cosolvent. The solutions were kept in the dark for 7 days, and the percentage of the starting materials was determined by periodic HPLC analysis (Supporting Information, HPLC Data).

[4] = Solubility in KMOPS buffer pH 7.2; assay type: physicochemical; settings: aqueous buffer; KMOPS buffer, pH 7.2; read-out: solubility
Description: The photochemical and photophysical properties were investigated in a simulated physiological buffer (KMOPS, pH 7.2) and compared with the literature data for CyHQ-O-DA (Table 1). […] For this derivative, 10% CH3CN in the buffer was used to ensure complete solubilization for the photochemistry experiments. The spontaneous hydrolysis in the dark was monitored over a period of 7 days and no significant hydrolysis was detected for any of the constructs. The molar absorptivity at the wavelength used for 1PE photolysis (ε365) ranged between 4800 and 5670 M^–1 cm^–1, in line with the values of most CyHQ-based PPGs.
The photochemical behavior of constructs 4–7c was investigated in KMOPS buffer at the concentration of 0.1 mM. Under these conditions, all compounds were soluble except for the VNA analogue 6c, which, because of the lipophilicity of the vanilloid, required 20% CH3CN for full solubilization. The stability toward hydrolysis in the dark was monitored over a week, and no significant decomposition was detected for any probe. All constructs were successfully photolyzed after light exposure, as shown in the time courses of the photolysis reactions (Figure 3). MeO-CyHQ constructs 4c, 6c, and 7c were photoactivated with excellent quantum efficiency and sensitivities, and good chemical yields were obtained by monitoring the appearance of the released bioeffector over the time course of the photoreaction (Table 1). […] We believe this effect is due to the presence of the thiophene ring, a well-known photoactive group,[51] which could act as an energy sink in the excited state and quench the photochemical reaction.

GRAB5-HT = assay: Activation of GRAB5-HT on HCT 116 cells by photoreleased serotonin; assay type: cell-based
Protocol: as §1, §2
as §3, with “Light dose–response curves were generated by applying a 405 nm light pulse for 1, 10, 50, 100, 200, 300, 400, 500, 600, 750, and 1000 ms at 50 frame intervals for CyHQ-O-DA, MeO-CyHQ-O-DA, and MeO-CyHQ-O-5HT.” left out

[5] = set-up: method as in PMID 32077679; settings: KMOPS buffer, pH 7.2; cited from earlier work
[6] = set-up: method as in PMID 32077679; settings: cited from earlier work
[7] = set-up: method as in PMID 32077679; settings: KMOPS buffer, pH 7.2; cited from earlier work; remark: listed apart in the source

NCCc1ccc(O)c(O)c1 [dopamine, reference compound]
dLight 1.2 response to bulk addition (dLight 1.2; 100 μM, no photoactivation): increase in fluorescence output

COc1cc(COc2ccc(CCN)cc2O)nc2c(C#N)c(O)ccc12.O=C(O)C(F)(F)F [3c, 2-(4-((8-Cyano-7-hydroxy-4-methoxyquinolin-2-yl)methoxy)-3-hydroxyphenyl)ethan-1-aminium 2,2,2-trifluoroacetate]
dLight 1.2 response after photoactivation (1PE) (dLight 1.2; 10 ms flash of 405 nm light): robust response
dLight 1.2 response after photoactivation (2PE) (dLight 1.2; 100 μM, 200 ms flash of 720 nm light): activated dLight 1.2
t90% (time required to consume 90% of the starting material) [1]: 25.4 s
irradiation time to complete the 1PE photolysis reaction ([1]; 365 nm): less than 1 min
ε365 [2]: 5670 M^–1 cm^–1
λmax [2]: 354 nm
τd (time constant of spontaneous hydrolysis in buffer in the dark at room temperature) [3]: nh (No hydrolysis (<5% detected after 7 days))
solubility [4]: > 100 µM

COc1cc(COc2ccc3[nH]cc(CCN)c3c2)nc2c(C#N)c(O)ccc12.O=C(O)C(F)(F)F [4c, 2-(5-((8-Cyano-7-hydroxy-4-methoxyquinolin-2-yl)methoxy)-1H-indol-3-yl)ethan-1-aminium 2,2,2-trifluoroacetate]
GRAB5-HT response after photoactivation (1PE) (GRAB5-HT; 20 μM, 20 ms burst of 405 nm light): robust response
GRAB5-HT response after photoactivation (2PE) (GRAB5-HT; 200 μM, 200 ms pulse of 720 nm light): robust response
light pulse duration at which the GRAB5-HT response plateaus (GRAB5-HT; 405 nm (1PE), 20 μM): around 200 ms
t90% (time required to consume 90% of the starting material) [1]: 18.4 s
ε365 [2]: 5400 M^–1 cm^–1
λmax [2]: 355 nm
τd (time constant of spontaneous hydrolysis in buffer in the dark at room temperature) [3]: nh (No hydrolysis (<5% detected after 7 days))
solubility [4]: > 100 µM

N#Cc1c(O)ccc2ccc(COc3cc(CCN)ccc3O)nc12 [CyHQ-O-DA]
solubility [5]: >100 µM
dLight 1.2 response after photoactivation (1PE) (dLight 1.2; 405 nm light pulse): increase in fluorescence output
τd (time constant of spontaneous hydrolysis in buffer in the dark at room temperature) [6]: nh ^g (No hydrolysis (<5% detected after 7 days))
ε365 [7]: 5300 M^–1 cm^–1
λmax [7]: 365 nm
